Peptide text beside a SMILES is read from it. * marks the point of attachment. Cbz = O=C(OCc1ccccc1)*
target: Substance-P receptor (Homo sapiens, UniProt P25103); experiment: Inhibition of [125I]BH-SP binding to tachykinin NK1 receptor in human IM-9 cells; assay type: cell-based
Sequence (P25103 whole entry): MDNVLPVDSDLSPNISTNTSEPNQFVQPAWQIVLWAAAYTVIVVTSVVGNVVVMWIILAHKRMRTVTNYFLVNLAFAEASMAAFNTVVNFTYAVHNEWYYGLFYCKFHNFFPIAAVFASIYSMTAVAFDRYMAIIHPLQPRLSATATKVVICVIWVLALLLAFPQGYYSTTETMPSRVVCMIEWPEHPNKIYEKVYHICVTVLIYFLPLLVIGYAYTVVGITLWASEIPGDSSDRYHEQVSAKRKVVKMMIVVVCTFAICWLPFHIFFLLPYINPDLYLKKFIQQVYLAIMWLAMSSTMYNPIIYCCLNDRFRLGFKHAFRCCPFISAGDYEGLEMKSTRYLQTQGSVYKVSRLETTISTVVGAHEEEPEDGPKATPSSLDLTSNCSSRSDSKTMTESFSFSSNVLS

IC50 [µM] | SMILES
9.3 | NC(=O)[C@H](Cc1ccccc1)NC(=O)[C@H](Cc1c[nH]c2ccccc12)NC(=O)OCc1ccccc1 (Cbz-Trp-Phe-NH2)
2.4 | O=C(NCCc1ccccc1)C1(Cc2ccccc2)CCc2ccc(Cc3ccccc3)cc21 (stereo unspecified)
3 | COC(=O)C1(Cc2ccccc2)CCc2ccc(Cc3ccccc3)cc21 (stereo unspecified)

target: T1, Neuromedin-K receptor (Homo sapiens, UniProt P29371); experiment: Inhibition of [125I][MePhe]-NKB binding to human Tachykinin receptor 3 in CHO cells; assay type: cell-based
T1 sequence (P29371 whole entry): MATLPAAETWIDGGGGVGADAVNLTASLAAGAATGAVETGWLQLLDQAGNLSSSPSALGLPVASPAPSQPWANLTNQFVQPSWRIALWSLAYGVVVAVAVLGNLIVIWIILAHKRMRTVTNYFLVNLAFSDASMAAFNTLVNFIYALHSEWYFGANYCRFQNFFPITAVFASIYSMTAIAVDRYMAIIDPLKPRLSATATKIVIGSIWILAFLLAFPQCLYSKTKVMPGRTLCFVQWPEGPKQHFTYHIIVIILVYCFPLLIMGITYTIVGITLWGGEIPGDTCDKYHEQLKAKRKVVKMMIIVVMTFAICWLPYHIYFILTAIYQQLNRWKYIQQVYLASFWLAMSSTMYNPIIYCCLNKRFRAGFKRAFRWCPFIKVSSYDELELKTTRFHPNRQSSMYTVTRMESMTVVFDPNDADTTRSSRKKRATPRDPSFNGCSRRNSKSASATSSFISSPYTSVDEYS

IC50 [µM] | SMILES
3 | O=C(NCCc1ccccc1)C1(Cc2ccccc2)CCc2ccc(Cc3ccccc3)cc21 (stereo unspecified)
8 | COC(=O)C1(Cc2ccccc2)CCc2ccc(Cc3ccccc3)cc21 (stereo unspecified)
5.2 | CC(C)(C)CNC(=O)C1(Cc2ccccc2)CCc2ccc(Cc3ccccc3)cc21 (stereo unspecified)

Reference: ChEMBL document CHEMBL1128031, “The design of dipeptide helical mimetics: the synthesis and biological activity of trisubstituted indanes” (Bioorg Med Chem Lett, 1994)
